Literature values as cited in US5654452A, “Lipophilic contrast agents for use in hepatocyte-selective oil-in-water emulsions” (Molecular Biosystems, Inc., priority 1995, dated 1997).

Test system: reticulendothelial system (RES)
Conditions: in vivo

Question: For `CCOC(=O)c1c(I)cc(I)c(NC(=O)CCCCC(=O)Nc2c(I)cc(I)c(C(=O)OCC)c2I)c1I` [iodipamide ethyl esters], which “uptake / liver specificity in reticuloendothelial system” value is on record?
Answer: liver specificity is mediated primarily via sequestration by the reticulendothelial system (RES)
